{"source": "patent US20050074426A1", "about": "“Fusions of cytokines and tumor targeting proteins” (priority 2002, published 2005)", "key": {"p55TNFR": {"molecular_target": "T1, p55TNFR (Homo sapiens, UniProt P19438)", "T1 sequence (P19438 30-455)": "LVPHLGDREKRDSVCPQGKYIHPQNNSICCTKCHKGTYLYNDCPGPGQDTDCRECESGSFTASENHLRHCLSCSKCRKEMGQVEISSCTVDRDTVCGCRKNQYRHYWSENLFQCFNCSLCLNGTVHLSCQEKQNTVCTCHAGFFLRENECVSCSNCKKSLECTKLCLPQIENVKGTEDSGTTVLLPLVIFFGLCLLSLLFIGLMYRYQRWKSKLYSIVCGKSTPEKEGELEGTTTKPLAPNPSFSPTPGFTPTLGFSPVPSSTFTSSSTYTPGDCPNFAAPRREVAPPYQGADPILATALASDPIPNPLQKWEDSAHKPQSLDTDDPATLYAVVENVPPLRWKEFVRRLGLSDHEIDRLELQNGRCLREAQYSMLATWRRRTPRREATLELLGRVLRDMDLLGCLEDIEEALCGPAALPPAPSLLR", "settings": "cited from earlier work"}, "[1]": {"assay": "lethality in RMA-T tumor bearing mice", "assay_type": "in vivo, C57BL/6 mice", "settings": "3 days after treatment, single dose i.p.", "procedure": "(§1) In vivo studies on animal models were approved by the Ethical Committee of the San Raffaele H Scientific Institute and performed according to the prescribed guidelines. C57BL/6 (Charles River Laboratories, Calco, Italy) (16-18 g) were challenged with 5×10^4 RMA-T or TSA living cells, respectively, s.c. in the left flank. Ten-twelve days after tumor implantation, mice were treated, i.p., with 250 μl TNF or RGD-TNF solutions, diluted with endotoxin-free 0.9% sodium chloride. […] Each experiment was carried out with 5 mice per group. The tumor growth was monitored daily by measuring the tumor size with calipers. The tumor area was estimated by calculating r1×r2 π, whereas tumor volume was estimated by calculating r1×r2×r3×4/3 π, where r1 and r2 are the longitudinal and lateral radii, and r3 is the thickness of tumors protruding from the surface of normal skin. Animals were killed before the tumor reached 1.0-1.3 cm diameter. Tumor sizes are shown as mean±SE (5-10 animals per group) and compared by t-test.\nMurine TNF administered to animals bearing established s.c. RMA-T tumors, causes 24 h later a reduction in the tumor mass and haemorragic necrosis in the central part of the tumor, followed by a significant growth delay for few days (71). […] In a first set of experiments we investigated the effect of various doses (i.p.) of TNF or RGD-TNF on animal survival. […]"}, "[2]": {"tested_on": "L-M mouse fibroblasts (ATCC CCL1.2)"}, "[3]": {"settings": "cited from earlier work"}, "p75TNFR": {"molecular_target": "T2, p75TNFR (Homo sapiens, UniProt P20333)", "T2 sequence (P20333 23-461)": "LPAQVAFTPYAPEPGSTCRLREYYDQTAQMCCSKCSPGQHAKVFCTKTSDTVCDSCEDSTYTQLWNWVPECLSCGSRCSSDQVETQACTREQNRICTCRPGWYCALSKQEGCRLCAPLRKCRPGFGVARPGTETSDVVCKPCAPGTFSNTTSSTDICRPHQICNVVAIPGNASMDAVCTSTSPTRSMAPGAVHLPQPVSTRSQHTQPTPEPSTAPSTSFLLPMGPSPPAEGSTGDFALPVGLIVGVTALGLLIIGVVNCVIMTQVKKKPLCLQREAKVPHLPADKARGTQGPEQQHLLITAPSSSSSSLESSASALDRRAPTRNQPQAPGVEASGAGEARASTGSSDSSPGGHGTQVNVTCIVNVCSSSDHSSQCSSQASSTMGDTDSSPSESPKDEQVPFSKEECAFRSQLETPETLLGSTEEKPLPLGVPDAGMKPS", "settings": "cited from earlier work"}, "RMA-T lymphoma": {"tested_on": "RMA-T lymphoma", "assay": "anti-tumor activity and survival in RMA-T lymphoma bearing mice", "assay_type": "in vivo, C57BL/6 mice", "procedure": "The Rauscher virus-induced RMA lymphoma of C57BL/6 origin (69) were maintained in vitro in RPMI 1640, 5% fetal bovine serum (FBS), 100 U/ml penicillin, 100 μg/ml streptomycin, 0.25 μg/ml amphotericin B, 2 mM glutamine and 50 μM 2-mercaptoethanol. RMA-T was derived from the RMA cell line by transfection with a construct encoding the Thy 1.1 allele and cultured as described Moro, 1997 #28].\nas §1, with “flank.” for “flank. Ten-twelve days after tumor implantation, mice were treated, i.p., with 250 μl TNF or RGD-TNF solutions, diluted with endotoxin-free 0.9% sodium chloride.”\nTo avoid excessive suffering, the animals were killed when the tumor diameter was greater than 1-1.3 cm."}, "[4]": {"settings": "dose 1 μg i.v., treated 12 days after tumor implantation"}, "[5]": {"settings": "dose 2 μg i.v., treated 12 days after tumor implantation"}, "[6]": {"settings": "dose 4 μg i.v., treated 12 days after tumor implantation"}}, "note": "Read-outs that look alike come from different tables or passages of the source.", "data": [{"substance": "TNF: Tumor Necrosis Factor-α; in the examples murine recombinant Met-TNF1-156 produced in E. coli", "values": [{"measurement": "Kd", "setting": "p55TNFR", "result": 0.5, "unit": "nM"}, {"measurement": "LD50 (lethality)", "setting": "[1]", "result": 6, "unit": "µg"}, {"measurement": "in vitro cytotoxic activity", "setting": "[2]", "result": "(1.2±0.14)×10^8 units/mg"}, {"measurement": "maximum tolerated dose", "setting": "[3]; bolus, intravenous, humans", "result": "218-410 μg/m^2"}, {"measurement": "maximum tolerated dose", "setting": "[3]; systemic administration", "result": "8 to 10", "unit": "µg/kg"}, {"measurement": "Kd", "setting": "p75TNFR", "result": 0.1, "unit": "nM"}, {"measurement": "Survival (%) Day 14", "setting": "RMA-T lymphoma; [4]", "result": 100, "unit": "%"}, {"measurement": "Survival (%) Day 22", "setting": "RMA-T lymphoma; [4]", "result": 22, "unit": "%"}, {"measurement": "Survival (%) Day 32", "setting": "RMA-T lymphoma; [4]", "result": 0, "unit": "%"}, {"measurement": "Survival (%) Day 14", "setting": "RMA-T lymphoma; [5]", "result": 100, "unit": "%"}, {"measurement": "Survival (%) Day 22", "setting": "RMA-T lymphoma; [5]", "result": 37, "unit": "%"}, {"measurement": "Survival (%) Day 32", "setting": "RMA-T lymphoma; [5]", "result": 0, "unit": "%"}, {"measurement": "Survival (%) Day 90 (2nd ch.)", "setting": "RMA-T lymphoma; dose 4 μg i.v., re-challenge with 50.000 RMA-T at day 90", "result": 0, "unit": "%"}, {"measurement": "Survival (%) Day 14", "setting": "RMA-T lymphoma; [6]", "result": 100, "unit": "%"}, {"measurement": "Survival (%) Day 22", "setting": "RMA-T lymphoma; [6]", "result": 70, "unit": "%"}, {"measurement": "Survival (%) Day 32", "setting": "RMA-T lymphoma; [6]", "result": 30, "unit": "%"}, {"measurement": "Survival (%) Day 37", "setting": "RMA-T lymphoma; [6]", "result": 10, "unit": "%"}, {"measurement": "Survival (%) Day 14", "setting": "RMA-T lymphoma; dose 8 μg i.v., treated 12 days after tumor implantation", "result": 0, "unit": "%"}, {"measurement": "Survival (%) Day 14", "setting": "RMA-T lymphoma; dose 16 μg i.v., treated 12 days after tumor implantation", "result": 0, "unit": "%"}, {"measurement": "animals cured", "setting": "RMA-T lymphoma; single treatment, RGD-TNF 16 μg, TNF all doses", "result": "no animals at all were cured"}]}]}
